The source of these data is ChEMBL document CHEMBL3769386, “Targeting microsomal prostaglandin E2synthase-1 (mPGES-1): the development of inhibitors as an alternative to non-steroidal anti-inflammatory drugs (NSAIDs)” (Medchemcomm, 2015).

Experiment [1] deals with T1, Prostaglandin E synthase (Homo sapiens, UniProt O14684).
T1 sequence (O14684 whole entry): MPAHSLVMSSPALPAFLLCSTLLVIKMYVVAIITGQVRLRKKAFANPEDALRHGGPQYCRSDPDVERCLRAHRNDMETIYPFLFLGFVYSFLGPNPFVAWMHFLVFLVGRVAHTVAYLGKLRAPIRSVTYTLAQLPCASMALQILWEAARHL
Put plainly: Inhibition of microsomal PGES1 in ILbeta-stimulated human A549 cells using PGH2 as substrate preincubated for 15 mins followed by substrate addition measured after 1 min by RP-HPLC analysis. Format: cell-based.

For experiment [2], the target named is T1, Prostaglandin E synthase. The experiment in a line: Inhibition of microsomal PGES1 (unknown origin).
Experiment [3] addresses T2, Prostaglandin E synthase (Mus musculus) (UniProt Q9JM51).
T2 sequence (whole entry): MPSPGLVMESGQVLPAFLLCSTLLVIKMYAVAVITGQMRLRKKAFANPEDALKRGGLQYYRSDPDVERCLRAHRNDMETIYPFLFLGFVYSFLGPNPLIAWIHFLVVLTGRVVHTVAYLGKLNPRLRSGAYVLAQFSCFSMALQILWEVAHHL
Put plainly: Inhibition of microsomal PGES1 in mouse J774 cells assessed as reduction of LPS-induced PGE2 production inhibition at 100 uM by radioimmuno assay in presence of radio labelled PGE2. Format: cell-based.

Experiment [4] addresses T1, Prostaglandin E synthase. The experiment in a line: Inhibition of recombinant human microsomal PGES1 using PGH2 as substrate preincubated for 15 mins followed by substrate addition measured after 5 mins by enzyme immunoassay.
Experiment [5] has as its target Prostaglandin G/H synthase 1 (Homo sapiens, UniProt P23219). The experiment in a line: Inhibition of COX1 (unknown origin).
A short description of experiment [6]: Inhibition of recombinant rat microsomal PGES1 using PGH2 as substrate incubated for 90 secs by MDA-TBA assay.
Experiment [7] deals with T1, Prostaglandin E synthase. The experiment in a line: Inhibition of human microsomal PGES1 using PGH2 as substrate incubated for 90 secs by MDA-TBA assay.
For experiment [8], the target named is T3, Prostaglandin G/H synthase 2 (Homo sapiens, UniProt P35354).
T3 sequence (P35354 whole entry): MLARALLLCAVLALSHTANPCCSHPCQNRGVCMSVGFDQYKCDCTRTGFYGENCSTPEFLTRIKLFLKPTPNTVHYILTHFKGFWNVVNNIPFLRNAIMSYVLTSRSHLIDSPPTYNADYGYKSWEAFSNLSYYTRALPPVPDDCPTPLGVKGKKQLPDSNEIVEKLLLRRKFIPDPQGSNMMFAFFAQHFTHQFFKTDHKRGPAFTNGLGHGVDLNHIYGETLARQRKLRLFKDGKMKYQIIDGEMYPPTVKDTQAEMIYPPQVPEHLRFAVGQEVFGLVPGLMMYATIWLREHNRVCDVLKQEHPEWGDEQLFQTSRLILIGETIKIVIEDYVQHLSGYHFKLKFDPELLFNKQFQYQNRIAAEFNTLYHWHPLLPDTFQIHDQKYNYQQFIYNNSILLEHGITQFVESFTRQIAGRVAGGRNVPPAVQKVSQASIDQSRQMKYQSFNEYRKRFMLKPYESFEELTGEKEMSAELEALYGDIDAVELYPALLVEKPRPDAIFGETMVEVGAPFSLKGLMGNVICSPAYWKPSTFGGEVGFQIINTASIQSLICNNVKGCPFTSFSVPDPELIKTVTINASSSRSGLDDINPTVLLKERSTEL
Put plainly: Inhibition of COX2 in IL1beta-induced human A549 cells using arachidonic acid as substrate assessed as 6-keto PGF1a formation preincubated for 10 mins followed by substrate addition measured after 30 mins by enzyme immunoassay. In kind it is cell-based.

Experiment [9] deals with T1, Prostaglandin E synthase. The experiment in a line: Inhibition of microsomal PGES1 in ILbeta/TNFalpha-stimulated human A549 cells using PGH2 as substrate preincubated for 15 mins followed by substrate addition measured after 1 min by LC-MS/MS analysis. Format: cell-based.
The target in experiment [10] is T4, Polyunsaturated fatty acid 5-lipoxygenase (Homo sapiens, UniProt P09917).
T4 sequence (P09917 whole entry): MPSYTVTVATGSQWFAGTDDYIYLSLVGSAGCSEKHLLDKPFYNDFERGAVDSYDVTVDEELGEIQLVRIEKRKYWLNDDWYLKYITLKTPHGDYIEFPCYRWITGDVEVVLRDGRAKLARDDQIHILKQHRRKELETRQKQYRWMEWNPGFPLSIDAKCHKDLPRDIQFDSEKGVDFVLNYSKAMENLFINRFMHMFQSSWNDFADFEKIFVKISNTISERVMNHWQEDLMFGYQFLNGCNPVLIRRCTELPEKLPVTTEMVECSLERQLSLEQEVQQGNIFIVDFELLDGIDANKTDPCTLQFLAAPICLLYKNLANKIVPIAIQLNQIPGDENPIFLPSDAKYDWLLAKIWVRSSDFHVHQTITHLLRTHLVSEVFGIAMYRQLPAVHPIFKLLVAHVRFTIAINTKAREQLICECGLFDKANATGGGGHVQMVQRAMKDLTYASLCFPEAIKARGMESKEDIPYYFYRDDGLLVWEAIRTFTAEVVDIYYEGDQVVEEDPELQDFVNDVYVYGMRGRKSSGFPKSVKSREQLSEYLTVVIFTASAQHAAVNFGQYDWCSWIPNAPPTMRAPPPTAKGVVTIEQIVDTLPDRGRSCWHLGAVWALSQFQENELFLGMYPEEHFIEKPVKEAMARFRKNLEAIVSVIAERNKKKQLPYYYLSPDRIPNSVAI
The experiment in a line: Inhibition of 5-lipooxygenase (unknown origin).

Experiment [11] has as its target T1, Prostaglandin E synthase. The experiment in a line: Inhibition of human microsomal PGES1 using PGH2 as substrate incubated after 75 secs by MDA-TBA assay.
A short description of experiment [12]: Inhibition of recombinant rat microsomal PGES1 using PGH2 as substrate after 75 secs by MDA-TBA assay.

Chain of Prostaglandin G/H synthase 1 (P23219 whole entry): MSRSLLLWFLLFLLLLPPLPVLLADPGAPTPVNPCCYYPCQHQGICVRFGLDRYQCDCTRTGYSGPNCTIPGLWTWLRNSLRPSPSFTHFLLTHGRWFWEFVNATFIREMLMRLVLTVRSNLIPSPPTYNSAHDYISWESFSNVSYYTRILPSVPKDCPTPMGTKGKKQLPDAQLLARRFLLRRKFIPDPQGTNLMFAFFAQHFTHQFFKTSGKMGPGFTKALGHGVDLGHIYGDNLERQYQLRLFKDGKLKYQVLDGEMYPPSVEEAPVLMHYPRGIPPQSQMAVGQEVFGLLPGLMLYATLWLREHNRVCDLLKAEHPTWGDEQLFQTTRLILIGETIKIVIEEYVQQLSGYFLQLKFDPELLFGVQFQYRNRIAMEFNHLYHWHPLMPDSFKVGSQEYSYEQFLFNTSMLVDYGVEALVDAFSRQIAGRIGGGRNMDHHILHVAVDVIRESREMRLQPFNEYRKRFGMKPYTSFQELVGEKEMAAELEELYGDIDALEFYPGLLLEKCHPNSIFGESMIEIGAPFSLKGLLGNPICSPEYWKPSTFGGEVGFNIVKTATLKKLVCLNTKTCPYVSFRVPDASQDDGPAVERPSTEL

As to `CC(C)c1cc2c(c(O)c1O)[C@@]1(C(=O)O)CCCC(C)(C)[C@@H]1CC2` [CARNOSIC ACID], the IC50 against Prostaglandin E synthase [1] was found to be 5 µM. On to `CC(=O)c1ccccc1-c1cc2c(C)c(CC(C)(C)C(=O)O)n(Cc3ccc(Cl)cc3)c2cc1F`, for which the IC50 on Prostaglandin E synthase [2] (read-out: pIC50 (converted)) is 0.00398 µM. In the case of `COc1cc(/C=C/C(=O)CC(=O)/C=C/c2ccc(O)c(OC)c2)ccc1O` [CURCUMIN], the IC50 against Prostaglandin E synthase [1] was 0.2 µM. With `O=C(Nc1cccc2ccccc12)c1cccc(NC(=O)c2ccccc2Cl)c1`, on Prostaglandin E synthase [2] (read-out: IC50), the IC50 stood at 0.2 µM.

As a reminder, the inhibition is the share of the control response that was lost under treatment. Take `O=C1c2c(O)cc(O)cc2OC(c2ccc(O)cc2)C1O` (stereo unspecified): the inhibition in experiment [3] was determined as 93.1%. `O=C(Nc1ccc2c(c1)c1ccccc1n2CCO)c1ccccc1C(F)(F)F`: on Prostaglandin E synthase [4], the IC50 came to 0.9 µM. As to `CCCCCC(=O)Cc1cc(O)cc(O)c1C(=O)Oc1cc(O)c(C(=O)O)c(CCCCC)c1`, the values for the IC50 (on Prostaglandin E synthase [1]; in experiment [5]) were 1.15 µM and more than 30 µM, respectively. Turning to `Cc1cc2nc(N3CCC(C(=O)NC4CCCC4)CC3)n(C(C)C)c2cc1C`, the IC50 stood at 0.9 µM in experiment [6] and 0.09 µM against Prostaglandin E synthase [7]. `CCc1oc(=O)c(Cc2c(O)c(CC=C(C)C)c(O)c(C(C)=O)c2O)c(O)c1C` [ARZANOL]: in [8], the IC50 was not below 30 µM. As for `COc1cc(O)ccc1C1Oc2cc(O)cc(O)c2C(=O)C1O` (stereo unspecified), the inhibition in experiment [3] came to 94.3%. Consider `CCCCCc1cc(OC(=O)c2c(O)cc(O)cc2CCCCC)cc(O)c1C(=O)O`, for which the results for the IC50 (against Prostaglandin E synthase [1]; in experiment [5]) were 0.4 µM and more than 30 µM, respectively. The molecule `COc1cc(C(=O)NS(=O)(=O)c2ccccc2C)ccc1Cc1cn(C)c2ccc(NC(=O)OC3CCCC3)cc12` [ZAFIRLUKAST] displayed an IC50 at Prostaglandin E synthase [9] of 18.1 µM.

In the case of `CCCCCC(=O)Cc1cc(O)cc2c1C(=O)Oc1cc(O)c(C(=O)O)c(CCCCC)c1O2` [PHYSODIC ACID], the IC50 against Prostaglandin E synthase [1] was 0.43 µM; in experiment [5], more than 30 µM.

For `Cc1ccc(C)c(-c2cc(C(F)(F)F)nn2-c2ccc(S(N)(=O)=O)cc2)c1` [DIMETHYL CELECOXIB], the IC50 on Prostaglandin E synthase [2] (read-out: IC50) is 0.6 µM. As for `CC(=O)c1c(O)c(CC=C(C)C)c(O)c(C(c2ccccc2)c2c(O)cc(C)oc2=O)c1O` (stereo unspecified), on Prostaglandin E synthase [1], the IC50 is 1 µM. Turning to `Cc1c(CC(C)(C)C(=O)O)n(Cc2ccc(Cl)cc2)c2cc(F)c(-c3ccccc3Cl)cc12`, the IC50 on Prostaglandin E synthase [2] (read-out: pIC50 (converted)) was 0.00501 µM. As for `CCCCCCC(Sc1nc(Cl)cc(Nc2cccc(C)c2C)n1)C(=O)O` (stereo unspecified), the IC50 in experiment [10] was 2 µM. Turning to `COc1ccccc1-c1cc2c(C)c(CC(C)(C)C(=O)O)n(Cc3ccc(Cl)cc3)c2cc1F`, the IC50 on Prostaglandin E synthase [2] (read-out: pIC50 (converted)) was 0.00692 µM.

In the case of `CC(C)c1cc2c(c(O)c1O)[C@@]13CCCC(C)(C)[C@@H]1C[C@@H]2OC3=O` [CARNOSOL], the IC50 against Prostaglandin E synthase [1] was 5 µM. For `CC1=NN(C(N)=S)C(=O)/C1=N/Nc1cccc(Br)c1`, the values for the IC50 (at Prostaglandin E synthase [11]; in [12]) were 1.8 µM and 0.62 µM, respectively. On Prostaglandin E synthase [1], `CCc1oc(=O)c(C(c2ccccc2)c2c(O)c(CC=C(C)C)c(O)c(C(C)=O)c2O)c(O)c1C` (stereo unspecified) yielded an IC50 of 0.8 µM.
